Columns and labels:
Assay in all cases: Off-target kinase panel
Format in all cases: biochemical
[1] = target: T1, Rse(h) (Homo sapiens, UniProt Q06418); conditions: MI891 @ 1 µM
T1 construct: purchased Eurofins (Millipore) KinaseProfiler, inferred from the naming style
Method: (§1) To evaluate the selectivity of MI891, an off-target profiling study was performed using a panel of 58 kinases.

[2] = target: T2, ROCK-I(h) (Homo sapiens, UniProt Q13464); conditions: MI891 @ 1 µM
T2 construct: purchased Eurofins (Millipore) KinaseProfiler, inferred from the naming style
Method: as §1

[3] = target: T3, PDGFRβ(h) (Homo sapiens, UniProt P09619); conditions: MI891 @ 1 µM
T3 construct: purchased Eurofins (Millipore) KinaseProfiler, inferred from the naming style
Method: as §1

[4] = target: T4, MEK1(h) (Homo sapiens, UniProt Q02750); conditions: MI891 @ 1 µM
T4 construct: purchased Eurofins (Millipore) KinaseProfiler, inferred from the naming style
Method: as §1

[5] = target: T5, PI3 Kinase (p110a/p85a)(h) (Homo sapiens, UniProt P42336); conditions: MI891 @ 1 µM
T5 construct: purchased Eurofins (Millipore) KinaseProfiler, inferred from the naming style
Method: as §1

[6] = target: T6, Rsk1(h) (Homo sapiens, UniProt Q15418); conditions: MI891 @ 1 µM
T6 construct: purchased Eurofins (Millipore) KinaseProfiler, inferred from the naming style
Method: as §1

[7] = target: CDK7/cyclinH/MAT1(h) (Homo sapiens, UniProt P50613); conditions: MI891 @ 1 µM
Method: as §1

[8] = target: EphA5(h) (Homo sapiens, UniProt P54756); conditions: MI891 @ 1 µM
Method: as §1

[9] = target: IKKα(h) (Homo sapiens, UniProt O15111); conditions: MI891 @ 1 µM
Method: as §1

[10] = target: T7, PI3 Kinase (p110d/p85a)(h) (Homo sapiens, UniProt O00329); conditions: MI891 @ 1 µM
T7 construct: purchased Eurofins (Millipore) KinaseProfiler, inferred from the naming style
Method: as §1

[11] = target: T8, NEK2(h) (Homo sapiens, UniProt P51955); conditions: MI891 @ 1 µM
T8 construct: purchased Eurofins (Millipore) KinaseProfiler, inferred from the naming style
Method: as §1

[12] = target: T9, Pim-1(h) (Homo sapiens, UniProt P11309)
T9 construct: purchased Eurofins (Millipore) KinaseProfiler, inferred from the naming style
Method: as §1

[13] = target: AMPKα1(h) (Homo sapiens, UniProt Q13131); conditions: MI891 @ 1 µM
Method: as §1

[14] = target: CDK1/cyclinB(h) (Homo sapiens, UniProt P06493); conditions: MI891 @ 1 µM
Method: as §1

[15] = target: T10, PAK2(h) (Homo sapiens, UniProt Q13177); conditions: MI891 @ 1 µM
T10 construct: purchased Eurofins (Millipore) KinaseProfiler, inferred from the naming style
Method: as §1

[16] = target: T11, PI3 Kinase (p110b/p85a)(h) (Homo sapiens, UniProt P42338); conditions: MI891 @ 1 µM
T11 construct: purchased Eurofins (Millipore) KinaseProfiler, inferred from the naming style
Method: as §1

[17] = target: ASK1(h) (Homo sapiens, UniProt Q99683); conditions: MI891 @ 1 µM
Method: as §1

[18] = target: T12, KDR(h) (Homo sapiens, UniProt P35968); conditions: MI891 @ 1 µM
T12 construct: purchased Eurofins (Millipore) KinaseProfiler, inferred from the naming style
Method: as §1

[19] = target: EGFR(h) (Homo sapiens, UniProt P00533); conditions: MI891 @ 1 µM
Method: as §1

[20] = target: T13, IRAK4(h) (Homo sapiens, UniProt Q9NWZ3); conditions: MI891 @ 1 µM
T13 construct: purchased Eurofins (Millipore) KinaseProfiler, inferred from the naming style
Method: as §1

[21] = target: T14, MSK2(h) (Homo sapiens, UniProt O75676); conditions: MI891 @ 1 µM
T14 construct: purchased Eurofins (Millipore) KinaseProfiler, inferred from the naming style
Method: as §1

[22] = target: Fyn(h) (Homo sapiens, UniProt P06241); conditions: MI891 @ 1 µM
Method: as §1

[23] = target: CHK1(h) (Homo sapiens, UniProt O14757); conditions: MI891 @ 1 µM
Method: as §1

[24] = target: CDK2/cyclinA(h) (Homo sapiens, UniProt P24941); conditions: MI891 @ 1 µM
Method: as §1

[25] = target: T15, LOK(h) (Homo sapiens, UniProt O94804); conditions: MI891 @ 1 µM
T15 construct: purchased Eurofins (Millipore) KinaseProfiler, inferred from the naming style
Method: as §1

[26] = target: T16, PKA(h) (Homo sapiens, UniProt P17612); conditions: MI891 @ 1 µM
T16 construct: purchased Eurofins (Millipore) KinaseProfiler, inferred from the naming style
Method: as §1

[27] = target: c-RAF(h) (Homo sapiens, UniProt P04049); conditions: MI891 @ 1 µM
Method: as §1

[28] = target: CaMKI(h) (Homo sapiens, UniProt Q14012); conditions: MI891 @ 1 µM
Method: as §1

[29] = target: CK1γ1(h) (Homo sapiens, UniProt Q9HCP0); conditions: MI891 @ 1 µM
Method: as §1

[30] = target: T17, Lyn(h) (Homo sapiens, UniProt P07948); conditions: MI891 @ 1 µM
T17 construct: purchased Eurofins (Millipore) KinaseProfiler, inferred from the naming style
Method: as §1

[31] = target: Abl(h) (Homo sapiens, UniProt P00519); conditions: MI891 @ 1 µM
Method: as §1

[32] = target: T18, mTOR(h) (Homo sapiens, UniProt P42345); conditions: MI891 @ 1 µM
T18 construct: purchased Eurofins (Millipore) KinaseProfiler, inferred from the naming style
Method: as §1

[33] = target: EphB4(h) (Homo sapiens, UniProt P54760); conditions: MI891 @ 1 µM
Method: as §1

[34] = target: T19, PKCθ(h) (Homo sapiens, UniProt Q04759); conditions: MI891 @ 1 µM
T19 construct: purchased Eurofins (Millipore) KinaseProfiler, inferred from the naming style
Method: as §1

[35] = target: CDK6/cyclinD3(h) (Homo sapiens, UniProt Q00534); conditions: MI891 @ 1 µM
Method: as §1

[36] = target: CDK9/cyclin T1(h) (Homo sapiens, UniProt P50750); conditions: MI891 @ 1 µM
Method: as §1

[37] = target: Aurora-A(h) (Homo sapiens, UniProt O14965); conditions: MI891 @ 1 µM
Method: as §1

[38] = target: T20, PRAK(h) (Homo sapiens, UniProt Q8IW41); conditions: MI891 @ 1 µM
T20 construct: purchased Eurofins (Millipore) KinaseProfiler, inferred from the naming style
Method: as §1

[39] = target: ALK(h) (Homo sapiens, UniProt Q9UM73); conditions: MI891 @ 1 µM
Method: as §1

[40] = target: T21, TAK1(h) (Homo sapiens, UniProt O43318); conditions: MI891 @ 1 µM
T21 construct: purchased Eurofins (Millipore) KinaseProfiler, inferred from the naming style
Method: as §1

[41] = target: T22, SAPK2a(h) (Homo sapiens, UniProt Q16539); conditions: MI891 @ 1 µM
T22 construct: purchased Eurofins (Millipore) KinaseProfiler, inferred from the naming style
Method: as §1

T9 sequence (P11309 whole entry): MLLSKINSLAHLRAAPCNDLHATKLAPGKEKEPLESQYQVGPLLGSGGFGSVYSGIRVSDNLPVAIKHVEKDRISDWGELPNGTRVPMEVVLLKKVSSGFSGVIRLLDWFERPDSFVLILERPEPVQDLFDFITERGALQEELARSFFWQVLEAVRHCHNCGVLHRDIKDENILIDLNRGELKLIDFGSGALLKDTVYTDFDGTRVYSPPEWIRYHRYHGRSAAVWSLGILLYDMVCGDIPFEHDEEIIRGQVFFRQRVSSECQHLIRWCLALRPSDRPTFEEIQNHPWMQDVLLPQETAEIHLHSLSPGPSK
T6 sequence (Q15418 whole entry): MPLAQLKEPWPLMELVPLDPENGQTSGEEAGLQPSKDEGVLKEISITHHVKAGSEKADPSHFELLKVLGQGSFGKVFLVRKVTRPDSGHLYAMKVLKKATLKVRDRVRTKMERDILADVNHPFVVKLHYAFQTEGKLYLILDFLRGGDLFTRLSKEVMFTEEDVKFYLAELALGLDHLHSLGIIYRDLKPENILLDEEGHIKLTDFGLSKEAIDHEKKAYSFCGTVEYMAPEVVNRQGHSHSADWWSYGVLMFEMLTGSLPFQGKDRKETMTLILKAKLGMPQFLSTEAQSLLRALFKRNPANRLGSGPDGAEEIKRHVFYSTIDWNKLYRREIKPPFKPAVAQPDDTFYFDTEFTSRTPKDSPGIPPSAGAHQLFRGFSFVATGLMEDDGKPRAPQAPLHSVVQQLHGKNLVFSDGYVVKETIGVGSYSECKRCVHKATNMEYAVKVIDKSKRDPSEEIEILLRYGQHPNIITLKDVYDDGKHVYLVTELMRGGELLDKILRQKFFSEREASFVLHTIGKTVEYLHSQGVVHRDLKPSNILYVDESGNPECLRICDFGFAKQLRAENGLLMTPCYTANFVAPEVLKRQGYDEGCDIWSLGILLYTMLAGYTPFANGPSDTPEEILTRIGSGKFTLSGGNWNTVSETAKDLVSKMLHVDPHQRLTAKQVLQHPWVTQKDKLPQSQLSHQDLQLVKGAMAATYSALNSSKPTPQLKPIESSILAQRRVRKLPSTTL
CDK1/cyclinB(h), sequence (P06493 whole entry): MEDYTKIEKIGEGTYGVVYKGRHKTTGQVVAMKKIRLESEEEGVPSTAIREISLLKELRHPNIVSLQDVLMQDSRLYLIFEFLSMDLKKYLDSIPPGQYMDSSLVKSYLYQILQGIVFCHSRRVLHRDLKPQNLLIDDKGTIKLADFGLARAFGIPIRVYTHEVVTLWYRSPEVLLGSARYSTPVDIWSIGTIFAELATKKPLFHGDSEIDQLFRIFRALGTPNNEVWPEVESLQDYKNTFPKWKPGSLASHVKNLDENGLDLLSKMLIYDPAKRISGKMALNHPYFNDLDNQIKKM
CDK1/cyclinB(h), sequence (P14635 whole entry partner): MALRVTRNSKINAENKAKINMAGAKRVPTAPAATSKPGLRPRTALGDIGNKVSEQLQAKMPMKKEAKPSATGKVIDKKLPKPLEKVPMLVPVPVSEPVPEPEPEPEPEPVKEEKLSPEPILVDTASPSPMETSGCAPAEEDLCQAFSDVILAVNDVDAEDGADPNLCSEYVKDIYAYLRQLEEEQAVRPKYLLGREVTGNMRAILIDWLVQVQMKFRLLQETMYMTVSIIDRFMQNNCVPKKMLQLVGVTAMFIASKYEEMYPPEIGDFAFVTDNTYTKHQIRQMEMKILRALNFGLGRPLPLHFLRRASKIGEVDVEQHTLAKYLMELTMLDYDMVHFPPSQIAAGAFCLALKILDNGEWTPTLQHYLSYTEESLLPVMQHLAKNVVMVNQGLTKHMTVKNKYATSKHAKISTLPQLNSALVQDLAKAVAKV
T17 sequence (P07948 whole entry): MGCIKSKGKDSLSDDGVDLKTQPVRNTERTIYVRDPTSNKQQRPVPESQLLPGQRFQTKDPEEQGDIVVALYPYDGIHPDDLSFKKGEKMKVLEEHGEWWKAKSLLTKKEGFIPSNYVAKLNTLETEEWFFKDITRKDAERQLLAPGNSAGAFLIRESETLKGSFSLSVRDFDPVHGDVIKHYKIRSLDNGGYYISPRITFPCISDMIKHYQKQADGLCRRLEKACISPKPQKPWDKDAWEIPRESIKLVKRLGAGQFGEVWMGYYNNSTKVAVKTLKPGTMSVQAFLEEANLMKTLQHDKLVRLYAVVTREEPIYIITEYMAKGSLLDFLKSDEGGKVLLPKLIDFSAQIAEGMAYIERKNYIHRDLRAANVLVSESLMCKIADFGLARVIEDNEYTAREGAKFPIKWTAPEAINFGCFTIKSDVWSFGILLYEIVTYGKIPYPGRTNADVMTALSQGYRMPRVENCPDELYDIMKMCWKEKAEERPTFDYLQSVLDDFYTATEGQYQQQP
T2 sequence (Q13464 whole entry): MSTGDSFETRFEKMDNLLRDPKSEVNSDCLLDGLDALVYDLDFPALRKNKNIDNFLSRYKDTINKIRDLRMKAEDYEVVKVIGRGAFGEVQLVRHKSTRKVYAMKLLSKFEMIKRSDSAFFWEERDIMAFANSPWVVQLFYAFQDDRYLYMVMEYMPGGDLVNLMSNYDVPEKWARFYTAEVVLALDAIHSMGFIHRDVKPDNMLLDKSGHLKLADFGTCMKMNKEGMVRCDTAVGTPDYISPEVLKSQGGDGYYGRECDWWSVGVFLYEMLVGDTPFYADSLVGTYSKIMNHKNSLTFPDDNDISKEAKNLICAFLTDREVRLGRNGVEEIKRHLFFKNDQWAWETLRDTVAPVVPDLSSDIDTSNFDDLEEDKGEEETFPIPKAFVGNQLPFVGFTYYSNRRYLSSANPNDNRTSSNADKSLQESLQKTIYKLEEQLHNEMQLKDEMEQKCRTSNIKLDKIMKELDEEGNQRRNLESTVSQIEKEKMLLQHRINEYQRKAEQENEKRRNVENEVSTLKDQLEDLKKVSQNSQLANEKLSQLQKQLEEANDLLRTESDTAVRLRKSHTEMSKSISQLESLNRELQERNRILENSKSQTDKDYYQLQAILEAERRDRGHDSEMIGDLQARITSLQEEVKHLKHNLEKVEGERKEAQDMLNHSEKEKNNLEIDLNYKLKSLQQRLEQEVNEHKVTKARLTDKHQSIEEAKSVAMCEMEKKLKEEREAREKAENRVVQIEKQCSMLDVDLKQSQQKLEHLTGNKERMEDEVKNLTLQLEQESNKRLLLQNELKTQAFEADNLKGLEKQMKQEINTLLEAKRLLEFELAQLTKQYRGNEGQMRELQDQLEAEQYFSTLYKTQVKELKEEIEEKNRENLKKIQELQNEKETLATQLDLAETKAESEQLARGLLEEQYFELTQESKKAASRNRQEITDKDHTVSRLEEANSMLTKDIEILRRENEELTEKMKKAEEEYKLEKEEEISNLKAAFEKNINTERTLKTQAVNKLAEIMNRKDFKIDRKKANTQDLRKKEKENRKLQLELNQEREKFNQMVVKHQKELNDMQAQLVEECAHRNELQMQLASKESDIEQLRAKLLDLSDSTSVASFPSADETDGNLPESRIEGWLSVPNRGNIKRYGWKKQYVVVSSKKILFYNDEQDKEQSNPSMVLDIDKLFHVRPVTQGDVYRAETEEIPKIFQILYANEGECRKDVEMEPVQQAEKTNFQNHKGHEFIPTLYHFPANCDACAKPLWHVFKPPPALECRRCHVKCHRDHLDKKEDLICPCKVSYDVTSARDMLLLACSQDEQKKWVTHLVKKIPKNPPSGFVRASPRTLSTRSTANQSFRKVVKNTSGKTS
Abl(h), sequence (P00519 whole entry): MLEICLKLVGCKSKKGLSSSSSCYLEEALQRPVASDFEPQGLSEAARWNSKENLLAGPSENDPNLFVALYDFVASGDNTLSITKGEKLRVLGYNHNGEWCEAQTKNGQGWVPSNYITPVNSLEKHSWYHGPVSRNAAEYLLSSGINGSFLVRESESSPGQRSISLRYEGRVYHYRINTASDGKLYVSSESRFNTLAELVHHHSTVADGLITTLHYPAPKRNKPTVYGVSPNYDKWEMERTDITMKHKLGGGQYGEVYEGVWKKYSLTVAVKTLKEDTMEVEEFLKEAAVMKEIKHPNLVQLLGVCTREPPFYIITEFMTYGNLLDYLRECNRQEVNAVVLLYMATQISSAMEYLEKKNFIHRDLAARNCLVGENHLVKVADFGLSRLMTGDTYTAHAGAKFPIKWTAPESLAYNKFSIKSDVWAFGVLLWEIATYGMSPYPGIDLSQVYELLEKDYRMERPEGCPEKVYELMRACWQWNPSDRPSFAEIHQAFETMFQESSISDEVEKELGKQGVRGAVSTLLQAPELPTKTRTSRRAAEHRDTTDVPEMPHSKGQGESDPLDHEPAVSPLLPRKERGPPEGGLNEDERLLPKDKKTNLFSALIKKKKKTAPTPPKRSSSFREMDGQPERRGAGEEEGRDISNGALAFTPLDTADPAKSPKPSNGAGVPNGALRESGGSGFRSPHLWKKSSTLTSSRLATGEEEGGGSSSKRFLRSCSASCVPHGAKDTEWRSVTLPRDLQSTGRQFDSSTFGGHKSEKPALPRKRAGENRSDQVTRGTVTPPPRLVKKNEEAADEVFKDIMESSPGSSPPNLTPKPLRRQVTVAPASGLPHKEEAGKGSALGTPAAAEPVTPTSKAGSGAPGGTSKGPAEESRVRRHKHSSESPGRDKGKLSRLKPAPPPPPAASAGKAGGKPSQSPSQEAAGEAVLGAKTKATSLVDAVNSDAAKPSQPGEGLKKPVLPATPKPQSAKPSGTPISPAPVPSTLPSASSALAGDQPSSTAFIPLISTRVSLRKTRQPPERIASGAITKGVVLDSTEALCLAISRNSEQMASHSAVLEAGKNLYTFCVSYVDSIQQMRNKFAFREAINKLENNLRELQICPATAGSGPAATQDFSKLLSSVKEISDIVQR

In the case of `NC(=O)c1cc(Cn2cc(-c3c(-c4ccc(Cl)cc4)nc4c(F)cc(F)cn34)nn2)ccc1Cl` [Compound 11, 2-Chloro-5-((4-(2-(4-chlorophenyl)-6,8-difluoroimidazo[1,2-a]pyridin-3-yl)-1H-1,2,3-triazol-1-yl)methyl)-benzamide], the activity at 1 µM [1] is reported as 109%, the activity at 1 µM [2] is reported as 97% and the activity at 1 µM [3] is reported as 86%. The activity at 1 µM [4] was 94%, the activity at 1 µM [5] was 92% and the activity at 1 µM [6] was 129%. The activity at 1 µM [7] was 94%, the activity at 1 µM [8] was 106% and the activity at 1 µM [9] was 104%. For the same compound, the activity at 1 µM [10] was 98%, the activity at 1 µM [11] was 103% and the activity at 1 µM ([12]; MI891 @ 1 µM) was 53%. The inhibition at 1 µM ([12]; at 1 μM) was 53%, the activity at 1 µM [13] was 102% and the activity at 1 µM [14] was 96%. The activity at 1 µM [15] was 84%, the activity at 1 µM [16] was 100% and the activity at 1 µM [17] was 91%. It also gave an activity at 1 µM [18] of 86%, an activity at 1 µM [19] of 103% and an activity at 1 µM [20] of 112%. The activity at 1 µM [21] was 110%, the activity at 1 µM [22] was 81% and the activity at 1 µM [23] was 93%. For the same compound, the activity at 1 µM [24] was 106%, the activity at 1 µM [25] was 94% and the activity at 1 µM [26] was 108%. The activity at 1 µM [27] was 101%, the activity at 1 µM [28] was 95% and the activity at 1 µM [29] was 100%. The activity at 1 µM [30] was 88%, the activity at 1 µM [31] was 104% and the activity at 1 µM [32] was 96%. The activity at 1 µM [33] was 97%, the activity at 1 µM [34] was 90% and the activity at 1 µM [35] was 92%. The activity at 1 µM [36] was 124%, the activity at 1 µM [37] was 81% and the activity at 1 µM [38] was 81%. For the same compound, the activity at 1 µM [39] was 76%, the activity at 1 µM [40] was 90% and the activity at 1 µM [41] was 99%.

Source: publication PMC12305494, “Discovery of PXR Antagonist MI891 and PXR Degrader MI1013 and Their Roles in Hepatic Gene Regulation” (Journal of Medicinal Chemistry, 2025)
